Assay results from BindingDB's records for doi:10.1021/jm801063n (University of Auckland, 2009).

Assay: Inhibition of recombinant perforin-mediated lysis of human Jurkat T cells by 51Cr release assay
Compound `Cc1cc2c(c(=S)[nH]1)C(=O)O/C2=C\c1ccc(N(C)C)cc1` [(Z)-1-(4-(Dimethylamino)benzylidene)-6-methyl-4-thioxo-4,5-dihydrofuro[3,4-c]pyridin-3(1H)-one] has an IC50 of over 20 µM.
`Cc1cc2c(c(=S)[nH]1)C(=O)O/C2=C\c1ccc(Cl)cc1` [(Z)-1-(4-Chlorobenzylidene)-6-methyl-4-thioxo-4,5-dihydrofuro[3,4-c]pyridin-3(1H)-one] gave an IC50 of over 20 µM.
For `Cc1cc2c(c(=S)[nH]1)C(=O)O/C2=C\c1ccc(F)cc1` [(Z)-1-(4-Fluorobenzylidene)-6-methyl-4-thioxo-4,5-dihydrofuro[3,4-c]pyridin-3(1H)-one], the IC50 was over 20 µM.
With `Cc1cc2c(c(=S)[nH]1)C(=O)O/C2=C\c1ncc[nH]1` [(Z)-1-((1H-Imidazol-2-yl)methylene)-6-methyl-4-thioxo-4,5-dihydrofuro[3,4-c]pyridin-3(1H)-one] the IC50 was over 20 µM.
`Cc1cc2c(c(=S)[nH]1)C(=O)O/C2=C\c1cc2ccccc2[nH]1` [(Z)-1-((1H-Indol-2-yl)methylene)-6-methyl-4-thioxo-4,5-dihydrofuro[3,4-c]pyridin-3(1H)-one] showed an IC50 of 1.3 µM.
Compound `Cc1cc2c(c(=S)[nH]1)C(=O)O/C2=C\c1c[nH]c2ccccc12` [(Z)-1-((1H-Indol-3-yl)methylene)-6-methyl-4-thioxo-4,5-dihydrofuro[3,4-c]pyridin-3(1H)-one] has an IC50 of over 20 µM.
With `Cc1cc2c(c(=S)[nH]1)C(=O)O/C2=C\c1cccc2cc[nH]c12` [(Z)-1-((1H-Indol-7-yl)methylene)-6-methyl-4-thioxo-4,5-dihydrofuro[3,4-c]pyridin-3(1H)-one] the IC50 was 4.1 µM.
For `Cc1cc2c(c(=S)[nH]1)C(=O)O/C2=C\c1ccc[nH]1` [(Z)-1-((1H-Pyrrol-2-yl)methylene)-6-methyl-4-thioxo-4,5-dihydrofuro[3,4-c]pyridin-3(1H)-one], the IC50 was over 20 µM.
With `Cc1cc2c(c(=O)[nH]1)C(=O)O/C2=C\c1ccc[nH]1` [(Z)-1-((1H-Pyrrol-2-yl)methylene)-6-methylfuro[3,4-c]pyridine-3,4(1H,5H)-dione] the IC50 was over 20 µM.
In the case of `COc1cccc2oc(/C=C3\OC(=O)c4c3cc(C)[nH]c4=S)cc12` [(Z)-1-((4-Methoxybenzofuran-2-yl)methylene)-6-methyl-4-thioxo-4,5-dihydrofuro[3,4-c]pyridin-3(1H)-one], the IC50 is reported as 6.7 µM.
Compound `Cc1cc2c(c(=S)[nH]1)C(=O)O/C2=C\c1cc2cc(OCc3ccccc3)ccc2[nH]1` [(Z)-1-((5-(Benzyloxy)-1H-indol-2-yl)methylene)-6-methyl-4-thioxo-4,5-dihydrofuro[3,4-c]pyridin-3(1H)-one] has an IC50 of over 20 µM.
For `Cc1cc2c(c(=S)[nH]1)C(=O)O/C2=C\c1csc2ccc(Br)cc12` [(Z)-1-((5-Bromobenzo[b]thiophen-3-yl)methylene)-6-methyl-4-thioxo-4,5-dihydrofuro[3,4-c]pyridin-3(1H)-one], the IC50 was 7.5 µM.
`COc1ccc2[nH]c(/C=C3\OC(=O)c4c3cc(C)[nH]c4=S)cc2c1` [(Z)-1-((5-Methoxy-1H-indol-2-yl)methylene)-6-methyl-4-thioxo-4,5-dihydrofuro[3,4-c]pyridin-3(1H)-one] showed an IC50 of 4.6 µM.
Compound `COc1ccc2sc(/C=C3\OC(=O)c4c3cc(C)[nH]c4=S)cc2c1` [(Z)-1-((5-Methoxybenzo[b]thiophen-2-yl)methylene)-6-methyl-4-thioxo-4,5-dihydrofuro[3,4-c]pyridin-3(1H)-one] has an IC50 of 13.1 µM.
Work on `COc1ccc2scc(/C=C3\OC(=O)c4c3cc(C)[nH]c4=S)c2c1` [(Z)-1-((5-Methoxybenzo[b]thiophen-3-yl)methylene)-6-methyl-4-thioxo-4,5-dihydrofuro[3,4-c]pyridin-3(1H)-one] yielded an IC50 of 5.1 µM.
Compound `COc1ccc2oc(/C=C3\OC(=O)c4c3cc(C)[nH]c4=S)cc2c1` [(Z)-1-((5-Methoxybenzofuran-2-yl)methylene)-6-methyl-4-thioxo-4,5-dihydrofuro[3,4-c]pyridin-3(1H)-one] has an IC50 of 2.4 µM.
For `COc1cc2cc(/C=C3\OC(=O)c4c3cc(C)[nH]c4=S)[nH]c2cc1OCc1ccccc1` [(Z)-1-((6-(Benzyloxy)-5-methoxy-1H-indol-2-yl)methylene)-6-methyl-4-thioxo-4,5-dihydrofuro[3,4-c]pyridin-3(1H)-one], the IC50 was over 20 µM.
`COc1cc2cc(/C=C3\OC(=O)c4c3cc(C)[nH]c4=S)oc2cc1OCc1ccccc1` [(Z)-1-((6-(Benzyloxy)-5-methoxybenzofuran-2-yl)methylene)-6-methyl-4-thioxo-4,5-dihydrofuro[3,4-c]pyridin-3(1H)-one] gave an IC50 of 5.1 µM.
Work on `COc1ccc2cc(/C=C3\OC(=O)c4c3cc(C)[nH]c4=S)[nH]c2c1` [(Z)-1-((6-Methoxy-1H-indol-2-yl)methylene)-6-methyl-4-thioxo-4,5-dihydrofuro[3,4-c]pyridin-3(1H)-one] yielded an IC50 of 3.1 µM.
`COc1ccc2cc(/C=C3\OC(=O)c4c3cc(C)[nH]c4=S)sc2c1` [(Z)-1-((6-Methoxybenzo[b]thiophen-2-yl)methylene)-6-methyl-4-thioxo-4,5-dihydrofuro[3,4-c]pyridin-3(1H)-one] showed an IC50 of 5.4 µM.
With `COc1ccc2c(/C=C3\OC(=O)c4c3cc(C)[nH]c4=S)csc2c1` [(Z)-1-((6-Methoxybenzo[b]thiophen-3-yl)methylene)-6-methyl-4-thioxo-4,5-dihydrofuro[3,4-c]pyridin-3(1H)-one] the IC50 was 4.7 µM.
With `COc1ccc2cc(/C=C3\OC(=O)c4c3cc(C)[nH]c4=S)oc2c1` [(Z)-1-((6-Methoxybenzofuran-2-yl)methylene)-6-methyl-4-thioxo-4,5-dihydrofuro[3,4-c]pyridin-3(1H)-one] the IC50 was 7.2 µM.
Compound `COc1cccc2cc(/C=C3\OC(=O)c4c3cc(C)[nH]c4=S)oc12` [(Z)-1-((7-Methoxybenzofuran-2-yl)methylene)-6-methyl-4-thioxo-4,5-dihydrofuro[3,4-c]pyridin-3(1H)-one] has an IC50 of 3 µM.
Compound `Cc1cc2c(c(=S)[nH]1)C(=O)O/C2=C\c1cc2ccccc2s1` [(Z)-1-(Benzo[b]thiophen-2-ylmethylene)-6-methyl-4-thioxo-4,5-dihydrofuro[3,4-c]pyridin-3(1H)-one] has an IC50 of 9.5 µM.
Work on `Cc1cc2c(c(=O)[nH]1)C(=O)O/C2=C\c1cc2ccccc2s1` [(Z)-1-(Benzo[b]thiophen-2-ylmethylene)-6-methylfuro[3,4-c]pyridine-3,4(1H,5H)-dione] yielded an IC50 of 4.6 µM.
`Cc1cc2c(c(=O)[nH]1)C(=O)O/C2=C\c1csc2ccccc12` [(Z)-1-(Benzo[b]thiophen-3-ylmethylene)-6-methylfuro[3,4-c]pyridine-3,4(1H,5H)-dione] gave an IC50 of 8.5 µM.
In the case of `Cc1cc2c(c(=S)[nH]1)C(=O)O/C2=C\c1cc2ccccc2o1` [(Z)-1-(Benzofuran-2-ylmethylene)-6-methyl-4-thioxo-4,5-dihydrofuro[3,4-c]pyridin-3(1H)-one], the IC50 is reported as 8.2 µM.
`Cc1cc2c(c(=S)[nH]1)C(=O)O/C2=C\c1coc2ccccc12` [(Z)-1-(Benzofuran-3-ylmethylene)-6-methyl-4-thioxo-4,5-dihydrofuro[3,4-c]pyridin-3(1H)-one] showed an IC50 of over 20 µM.
For `Cc1cc2c(c(=S)[nH]1)C(=O)O/C2=C\c1ccc(-c2ccccc2)cc1` [(Z)-1-(Biphenyl-4-ylmethylene)-6-methyl-4-thioxo-4,5-dihydrofuro[3,4-c]pyridin-3(1H)-one], the IC50 was over 20 µM.
Compound `Cc1cc2c(c(=S)[nH]1)C(=O)O/C2=C\c1ccco1` [(Z)-1-(Furan-2-ylmethylene)-6-methyl-4-thioxo-4,5-dihydrofuro[3,4-c]pyridin-3(1H)-one] has an IC50 of 4.4 µM.
Work on `Cc1cc2c(c(=S)[nH]1)C(=O)O/C2=C\c1ccoc1` [(Z)-1-(Furan-3-ylmethylene)-6-methyl-4-thioxo-4,5-dihydrofuro[3,4-c]pyridin-3(1H)-one] yielded an IC50 of over 20 µM.
With `Cc1cc2c(c(=S)[nH]1)C(=O)O/C2=C\c1ccccc1` [(Z)-1-Benzylidene-6-methyl-4-thioxo-4,5-dihydrofuro[3,4-c]pyridin-3(1H)-one] the IC50 was over 20 µM.
With `COc1cccc2scc(/C=C3\OC(=O)c4c3cc(C)[nH]c4=S)c12` [(Z)-1-[(4-Methoxy-1-benzothien-3-yl)methylene]-6-methyl-4-thioxo-4,5-dihydrofuro[3,4-c]pyridine-3(1H)-one] the IC50 was 3.8 µM.
`CSc1ccc(/C=C2\OC(=O)c3c2cc(C)[nH]c3=S)cc1` [(Z)-6-Methyl-1-(4-(methylthio)benzylidene)-4-thioxo-4,5-dihydrofuro[3,4-c]pyridin-3(1H)-one] gave an IC50 of over 20 µM.
Compound `Cc1ccc(/C=C2\OC(=O)c3c2cc(C)[nH]c3=S)cc1` [(Z)-6-Methyl-1-(4-methylbenzylidene)-4-thioxo-4,5-dihydrofuro[3,4-c]pyridin-3(1H)-one] has an IC50 of over 20 µM.
For `Cc1cc2c(c(=S)[nH]1)C(=O)O/C2=C\c1cc2ccccc2n1C` [(Z)-6-Methyl-1-((1-methyl-1H-indol-2-yl)methylene)-4-thioxo-4,5-dihydrofuro[3,4-c]pyridin-3(1H)-one], the IC50 was over 20 µM.
Compound `Cc1cc2c(c(=S)[nH]1)C(=O)O/C2=C\c1cn(C)c2ccccc12` [(Z)-6-Methyl-1-((1-methyl-1H-indol-3-yl)methylene)-4-thioxo-4,5-dihydrofuro[3,4-c]pyridin-3(1H)-one] has an IC50 of 4.3 µM.
Compound `Cc1cc2c(c(=O)[nH]1)C(=O)O/C2=C\c1cn(C)c2ccccc12` [(Z)-6-Methyl-1-((1-methyl-1H-indol-3-yl)methylene)furo[3,4-c]pyridine-3,4(1H,5H)-dione] has an IC50 of over 20 µM.
Compound `Cc1cc2c(c(=S)[nH]1)C(=O)O/C2=C\c1cccn1C` [(Z)-6-Methyl-1-((1-methyl-1H-pyrrol-2-yl)methylene)-4-thioxo-a4,5-dihydrofuro[3,4-c]pyridin-3(1H)-one] has an IC50 of over 20 µM.
For `Cc1cc2c(c(=O)[nH]1)C(=O)N/C2=C\c1ccc(C)o1` [(Z)-6-Methyl-1-((5-methylfuran-2-yl)methylene)-1H-pyrrolo[3,4-c]pyridine-3,4(2H,5H)-dione], the IC50 was over 20 µM.
`Cc1cc2c(c(=O)[nH]1)C(=O)O/C2=C\c1ccc(C)o1` [(Z)-6-Methyl-1-((5-methylfuran-2-yl)methylene)furo[3,4-c]pyridine-3,4(1H,5H)-dione] showed an IC50 of over 20 µM.
For `Cc1cc2c(c(=S)[nH]1)C(=O)O/C2=C\c1ccc(C)s1` [(Z)-6-Methyl-1-((5-methylthiophen-2-yl)methylene)-4-thioxo-4,5-dihydrofuro[3,4-c]pyridin-3(1H)-one], the IC50 was 7.2 µM.
For `Cc1cc2c(c(=S)[nH]1)C(=O)O/C2=C\c1ccc(-c2ccccc2)o1` [(Z)-6-Methyl-1-((5-phenylfuran-2-yl)methylene)-4-thioxo-4,5-dihydrofuro[3,4-c]pyridin-3(1H)-one], the IC50 was 4 µM.
